Laboratory results taken from patent US20040044304A1, “Local drug delivery using photosensitizer-mediated and electromagnetic radiation enhanced vascular permeability” (priority 2002, published 2004).

Tested on: blood vessels within the dorsal window chamber
Format: in vivo, mice of strain C3H
Source text: Male mice of strain C3H (sourced from The Jackson Laboratory, 600 Main Street, Bar Harbor, Me. 04609 USA) weighing between 28-30 gram were surgically implanted with titanium back-pack window chambers in a similar manner to that described for Syrian Golden hamsters as described above. Prior to the surgical procedure, the dorsal surface of the mouse was shaved with electric clippers (Sunbeam Oster 2-Speed, 150 Cadillac Lane, McMinnville, Tenn., 37110) and then the shaved skin covered in a depilatory cream (Nair, Carter Products, New York, N.Y., 10105) for 10 minutes to remove the remaining hair. Then a dorsal skin fold consisting of two layers of skin and muscle tissue was sandwiched between two opposing titanium frames (Campus Research Machine Shop, University of California, San Diego 9500 Gilman Drive, La Jolla, Calif.) with a 14 mm circular opening in each. Layers of skin and muscle fascia were separated from the sub-cutaneous tissue, and removed until a thin monolayer of muscle and one layer of intact skin remained. A coverglass (Type Circle 1, Part #12-545-80 sourced from Fisher Scientific, 2761 Walnut Avenue, Tustin, Calif., 92780) held by an expansion ring in the circular window of one titanium frame was then placed on the exposed tissue to allow direct microscopic visualization of the vasculature. The window in the second opposing titanium frame was left open exposing the intact skin.
Microvascular observations using an intra-vital microscope were not undertaken until at least 2 days post-chamber implantation to mitigate against post-surgical trauma, and to confirm that blood vessels within the chamber were functioning and intact and patent. A chamber was considered suitable for subsequent studies if microscopic examination of the preparation met the following criteria (as applied in Friesenecker et al., 1994):
The intra-vital microscopic studies were undertaken on un-sedated animals held in a Plexiglass tube (manufactured by Miravant Medical Technologies, Inc., 336 Bollay Drive, Santa Barbara, 93117) from which the window chamber sandwich protruded horizontally, allowing visualization of the chamber on the microscope stage. The Plexiglass tube acted to restrain the animals without impeding respiration. The intra-vital microscopy was performed using a Leitz Dialux 22 (West LA Microscope Co., Butler Avenue, Santa Monica, 90025) fitted with a Leitz Wetzlar 20× L20 lens (0.32 numerical aperture), a Leitz Wetzlar 10× Planfluotar lens (0.30 numerical aperture), a Leitz Wetzlar 4× EF lens (0.12 numerical aperture), a Leitz Wetzlar 2.5× P1 lens (0.08 numerical aperture, and an Olympus 20× Wplan water immersion lens (0.4 numerical aperture). The intra-vital microscope system used for these studies was fitted with two trans-illumination light sources and one epi-illumination light source. The two trans-illumination sources were used in the following manner. One trans-illumination light source was used for imaging the tissue within the window chamber, and the other was used as the irradiation source for activating the photosensitizer in the tissue. The imaging source was a […] mercury arc lamp (Type 307-143.004 from Ernst Leitz Wetzlar GmBH, Germany) which was powered by an HBO 100 power supply (LEP Ltd., Scarsdale, N.Y.). The output from this source was filtered using a #H43157 interference filter (Edmund Scientific, 101 East Gloucester Pike, Barrington, N.J., 08007-1380), to produce a beam of 410 nm light. The irradiation source was a Model DD4 Diode Laser (Miravant Medical Technologies 336 Bollay Drive., Santa Barbara, Calif., 93117), which produced 664 nm light.

SMILES: C=Cc1c(C)c2[n]3c1=CC1=NC(=Cc4c(C)c5c([n]4[In]3[Cl])C(=C3N=C(C=2)[C@@H](C)[C@@H]3CCC(=O)OC)CC5=O)C(CC)=C1C [MV6401, indium methyl pyropheophorbide]
- Extravasation of FITC-Dextran from larger vessels in field (mouse #2, MV6401 0.05 mg/kg i.v., 664 nm, 15 J/cm^2, 50 mW/cm^2, FITC-Dextran 1 day post PhotoPoint therapy): Pronounced extravasation
- Extravasation of FITC-Dextran from many vessels in the treatment field (mouse #3, MV6401 0.05 mg/kg i.v., 664 nm, 20 J/cm^2, 50 mW/cm^2, FITC-Dextran 2 days post PhotoPoint therapy): flowing. Pronounced
- Edema in field (mouse, in vivo, iv, 0.05 mg/kg): Mild edema in field.
- Focal edema and cellular infiltrate (mouse, in vivo, iv, 0.05 mg/kg): minor areas of focal
- Focal vascular damage in the treatment field, immediately post FITC-Dextran administration (mouse, in vivo, iv, 0.05 mg/kg): Some evidence of focal
- Tissue damage, subsequent observation (mouse, in vivo, iv, 0.05 mg/kg): damage. Some evidence
- Vascular damage, subsequent observation (mouse, in vivo, iv, 0.05 mg/kg): Pronounced focal vascular
